The test system of this assay is immunoglobulin A. Briefly: IgA production by mid colon biopsy samples of cats fed the diets, measured by ELISA. In kind it is in vivo, cat. The procedure: The study was carried out using eight members of the cat colonic health panel, which were known to be in good (intestinal) health. Cats were wormed and vaccinated 6 months prior to the start of the trial. The cats underwent the following trial regime; [table] Both the control diet and the glutamine enriched diet provided 405 kCal/100 g. The control diet was a dry diet containing approximately 4% water. The control diet comprised the following ingredients (˜is approximately): The glutamine-supplemented diet comprised 1% dry weight by weight glutamine provided as L-glutamine. The glutamine was sprayed onto the external surface of the dry control product. Levels of immunoglobulin A production by mid colon biopsy samples were measured by enzyme linked immunosorbent assay (ELISA). IgA ELISA test was obtained from Bethyl and performed as described in provided protocol sheets. In short, 96 well microplates were taken and coated with 100 μl anti-canine IgA overnight at 4° C. After each step the plates were washed with ELISA wash (50 Mm) Tris, pH 8.0, 0.1M NaCl, 0.05% Tween 20). Unreacted sites were blocked with tris-buffered saline (TBS) containing 1% bovine serum albumin (BSA) for 30 minutes. […] Finally, the absorbence was read spectrophotometrically at 450 nm using an ELISA plate reader.
For orientation: In an ELISA, binding on a coated surface is turned into a signal by an enzyme label.

The structures appear in SMILES notation.

For `NC(=O)CC[C@H](N)C(=O)O` [Glutamine, L-glutamine], for the setting “cats fed diets containing 1% glutamine, samples taken from below the transwell, P=0.048, GLM”, the “IgA production by the colon, compared to the other diets” value is listed as “significant increase”. Where the note is “healthy cats, diet with 1% dry w/w L-glutamine for 28 days, mid colon biopsy samples, letters (a)/(b) mark a significant difference”, the “IgA production (ng/mg protein) Intestinal Sample” value is reported as 1003.1 ± 762.9 (b) ng/mg protein.

These data come from patent publication US20050107303A1, “Health feed” (priority 2001, published 2005).
